Five compounds from ChEMBL document CHEMBL1641379, “PEGylated derivatives of cystamine as enhanced treatments for nephropathic cystinosis” (Bioorg Med Chem Lett, 2011) can be followed below.

One series relates to Fibroblast. Briefly: Antinephropathic cystinosis activity in human cystinotic fibroblast assessed as decrease in cystine level at 50 uM after 24 hrs by Bradford reagent method. The format is functional, cell-based.
Series [1] in a line: Cytotoxicity against human cystinotic fibroblast at 50 uM after 72 hrs by alamar blue assay. The series is classed as cell-based. (The colour change of resazurin is a common sign of viable cells or microbes.)

Activity calls are given as the source filed them. No cut-off for these calls is given here.

Regarding `COCCOCCOCCOCCNC(=O)CCCC(=O)NCCSSCCNC(=O)CCCC(=O)NCCOCCOCCOCCOC`, the inhibition entry in the series with Fibroblast is “Active”. Turning to `NCCS` [CYSTEAMINE], the Activity entry in series [1] was “Non-toxic”. In addition, in the series on Fibroblast, the inhibition entry is “Active”. Consider `COCCOCCOCCNC(=O)CCCC(=O)NCCSSCCNC(=O)CCCC(=O)NCCOCCOCCOC`, for which the Activity result in series [1] is listed as “Non-toxic”. The inhibition entry with Fibroblast is “Active”. With `COCCOCCOCCNC(=O)CCC(=O)NCCSSCCNC(=O)CCC(=O)NCCOCCOCCOC`, the Activity result in series [1] is on record as “Non-toxic”. Besides, the inhibition entry with Fibroblast was “Active”. Regarding `COCCOCCOCCOCCNC(=O)CCC(=O)NCCSSCCNC(=O)CCC(=O)NCCOCCOCCOCCOC`, in series [1], the Activity entry is given as “Non-toxic”. The inhibition entry in the series on Fibroblast is “Active”.
